According to patent publication US8017612B2, “Piperazine compound and use thereof as a HCV polymerase inhibitor” (priority 2006, dated 2011):

What was measured:
[1] = target: T1, HCV polymerase (NS5B) type 1b (Hepatitis C virus genotype 1b, UniProt P26663); assay: Assay of enzyme (HCV polymerase) inhibitory activity, type 1b enzyme; format: biochemical, HCV BK strain (type 1b)
T1 construct: a region encoding NS5B (J Virol 1991 March, 65(3), 1105-13, 544 amino acids after deletion of 47 amino acids on the C-terminal); 6xHis (C); made in house; host or cells: Escherichia coli
How it was run: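 Rxn: NS5B 1b (BK, ΔC47, His6) 0.5 μg/ml; substrate RNA 5 μg/ml; ATP/GTP/CTP 50 μM, UTP 2 μM + [5,6-3H]UTP; 20 mM Tris pH 7.5, 5 mM MgCl2, 50 mM NaCl, 1 mM EDTA/DTT. 25 °C, 60 min. Stop with TCA/pyrophosphate, filter, scintillation count; IC50 vs. untreated.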

[2] = target: T2, HCV polymerase (NS5B) type 1a (Hepatitis C virus genotype 1a, UniProt P26664); assay: Assay of enzyme (HCV polymerase) inhibitory activity, type 1a enzyme; format: biochemical, HCV type 1a (cloned from the blood of patients)
T2 construct: made in house; host or cells: Escherichia coli (by the 'similar method' of the 1b enzyme)
How it was run: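 NS5B Δ47 C-term His6 (type 1a, 1.5 μg/ml); substrate RNA 5 μg/ml; ATP/GTP/CTP 50 μM, UTP 2 μM + [5,6-3H]UTP; Tris pH 7.5, MgCl2 5 mM; 25° C, 60 min. TCA/pyrophosphate stop, GF/B filter, scintillation. IC50 vs no-compound control.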

[3] = HCV polymerase inhibitory activity (IC50), 1b, type 1b enzyme 0.5 μg/ml, 25° C., 60 min
[4] = HCV polymerase inhibitory activity (IC50), 1a, type 1a enzyme 1.5 μg/ml, 25° C., 60 min
[5] = HCV polymerase inhibitory activity IC50, 1b, type 1b enzyme
[6] = HCV polymerase inhibitory activity IC50, 1a, type 1a enzyme

CCC(F)(F)c1ccc(CNC(=O)[C@H]2CN(C(=O)Nc3nnc(C(=O)N4CC[C@@H](O)C4)s3)CCN2S(=O)(=O)c2ccc(OC(F)(F)F)cc2)cc1 [Example 495, (R)-4-(4-trifluoromethoxy-benzenesulfonyl)-piperazine-1,3-dicarboxylic acid 3-[4-(1,1-difluoro-propyl)-benzylamide] 1-{[5-((R)-3-hydroxy-pyrrolidine-1-carbonyl)-[1,3,4]thiadiazol-2-yl]-amide}]
IC50 [1, 3]: 100 to 1000 nM | IC50 [2, 4]: > 1000 nM

O=C(NCc1ccc(OC(F)F)cc1)[C@H]1CN(c2nc3nc(Cl)ncc3s2)CCN1S(=O)(=O)c1ccc(OC(F)(F)F)cc1 [Example 931, (R)-4-(5-chloro-thiazolo[4,5-d]pyrimidin-2-yl)-1-(4-trifluoromethoxy-benzenesulfonyl)-piperazine-2-carboxylic acid 4-difluoromethoxy-benzylamide]
IC50 [1, 5]: < 100 nM | IC50 [2, 6]: < 100 nM

CC(=O)N1CCN(S(=O)(=O)c2ccc(OC(F)(F)F)cc2)[C@@H](C(=O)NC[C@H]2CC[C@H](C(=O)O)CC2)C1 [Example 669, trans-4-({[(R)-4-acetyl-1-(4-trifluoromethoxy-benzenesulfonyl)-piperazine-2-carbonyl]-amino}-methyl)-cyclohexanecarboxylic acid]
IC50 [1, 5]: > 1000 nM | IC50 [2, 6]: > 1000 nM

CCC(F)(F)c1ccc(CNC(=O)[C@H]2CN(c3cnc(C(=O)O)cn3)CCN2S(=O)(=O)c2ccc(OC(F)(F)F)cc2)cc1 [Example 559, (R)-3-[4-(1,1-difluoro-propyl)-benzylcarbamoyl]-4-(4-trifluoromethoxy-benzenesulfonyl)-3,4,5,6-tetrahydro-2H-[1,2′]bipyrazinyl-5′-carboxylic acid]
IC50 [1, 3]: < 100 nM | IC50 [2, 4]: < 100 nM

Cc1nc(N2CCN(S(=O)(=O)c3ccc(OC(F)(F)F)cc3)[C@@H](C(=O)NCc3ccc(C(C)C)cc3)C2)sc1C(=O)N[C@@H](C)C(=O)O [Example 370, (S)-2-({2-[(R)-3-(4-isopropyl-benzylcarbamoyl)-4-(4-trifluoromethoxy-benzenesulfonyl)-piperazin-1-yl]-4-methyl-thiazole-5-carbonyl}-amino)-propionic acid]
IC50 [1, 3]: < 100 nM | IC50 [2, 4]: 100 to 1000 nM

CCc1ccc(S(=O)(=O)N2CCN(c3cnc(C(=O)O)cn3)C[C@@H]2C(=O)NCc2ccc(C(F)(F)CC)cc2)cc1 [Example 564, (R)-3-[4-(1,1-difluoro-propyl)-benzylcarbamoyl]-4-(4-ethyl-benzenesulfonyl)-3,4,5,6-tetrahydro-2H-[1,2′]bipyrazinyl-5′-carboxylic acid]
IC50 [1, 3]: < 100 nM | IC50 [2, 4]: < 100 nM

CCC(F)(F)c1ccc(CNC(=O)[C@H]2CN(C(=O)Nc3cscn3)CCN2S(=O)(=O)c2ccc(OC(F)(F)F)cc2)cc1 [Example 525, (R)-4-(4-trifluoromethoxy-benzenesulfonyl)-piperazine-1,3-dicarboxylic acid 3-[4-(1,1-difluoro-propyl)-benzylamide] 1-thiazol-4-ylamide]
IC50 [1, 3]: < 100 nM | IC50 [2, 4]: < 100 nM

COC(=O)c1cc(S(=O)(=O)N2CCN(C(C)=O)C[C@@H]2C(=O)NCc2ccc(C(C)C)cc2)ccc1OC [Example 235, 5-[(R)-4-acetyl-2-(4-isopropyl-benzylcarbamoyl)-piperazine-1-sulfonyl]-2-methoxy-benzoic acid methyl ester]
IC50 [1, 3]: > 1000 nM | IC50 [2, 4]: > 1000 nM

CC(=O)N1CCN(S(=O)(=O)c2ccc(S(=O)(=O)c3ccccc3)s2)C(C(=O)NCc2ccc(C(F)(F)F)cc2)C1 (stereo not drawn) [Example 47, 4-acetyl-1-(5-benzenesulfonyl-thiophene-2-sulfonyl)-piperazine-2-carboxylic acid 4-trifluoromethyl-benzylamide]
IC50 [1, 3]: > 1000 nM | IC50 [2, 4]: > 1000 nM

CCCc1ccc(CNC(=O)[C@H]2CN(c3ccc(N)cn3)CCN2S(=O)(=O)c2ccc(OC(F)(F)F)cc2)cc1 [Example 458, (R)-4-(5-amino-pyridin-2-yl)-1-(4-trifluoromethoxy-benzenesulfonyl)-piperazine-2-carboxylic acid 4-propyl-benzylamide]
IC50 [1, 3]: < 100 nM | IC50 [2, 4]: < 100 nM

CC(=O)N1CCN(S(=O)(=O)c2ccc(C(C)C)cc2)[C@@H](C(=O)NCc2ccc(C(C)C)cc2)C1 [Example 137, (R)-4-acetyl-1-(4-isopropyl-benzenesulfonyl)-piperazine-2-carboxylic acid 4-isopropyl-benzylamide]
IC50 [1, 3]: < 100 nM | IC50 [2, 4]: < 100 nM

CC(C)(C)OC(=O)N1CCc2nc(N3CCN(S(=O)(=O)c4ccc(OC(F)(F)F)cc4)[C@@H](C(=O)NCc4ccc(C(C)(C)C)cc4)C3)sc2C1 [Example 587, 2-[(R)-3-(4-tert-butyl-benzylcarbamoyl)-4-(4-trifluoromethoxy-benzenesulfonyl)-piperazin-1-yl]-6,7-dihydro-4H-thiazolo[5,4-c]pyridine-5-carboxylic acid tert-butyl ester]
IC50 [1, 3]: < 100 nM | IC50 [2, 4]: 100 to 1000 nM

CCN(C)c1ccc(CNC(=O)[C@H]2CN(c3nc4nc(Cl)ncc4s3)CCN2S(=O)(=O)c2ccc(OC(F)(F)F)cc2)cc1 [Example 958, (R)-4-(5-chloro-thiazolo[4,5-d]pyrimidin-2-yl)-1-(4-trifluoromethoxy-benzenesulfonyl)-piperazine-2-carboxylic acid 4-(ethyl-methyl-amino)-benzylamide]
IC50 [1, 5]: < 100 nM | IC50 [2, 6]: < 100 nM

CC(C)(C)c1ccc(CNC(=O)[C@H]2CN(c3nc4c(s3)CNCC4)CCN2S(=O)(=O)c2ccc(OC(F)(F)F)cc2)cc1 [Example 588, (R)-4-(4,5,6,7-tetrahydro-thiazolo[5,4-c]pyridin-2-yl)-1-(4-trifluoromethoxy-benzenesulfonyl)-piperazine-2-carboxylic acid 4-tert-butyl-benzylamide]
IC50 [1, 3]: < 100 nM | IC50 [2, 4]: < 100 nM

CN(C)c1ccc(CNC(=O)C2CN(C(=O)Cc3ccccc3)CCN2S(=O)(=O)c2ccc(I)cc2)cc1 (stereo not drawn) [Example 131, 1-(4-iodo-benzenesulfonyl)-4-phenylacetyl-piperazine-2-carboxylic acid 4-dimethylamino-benzylamide]
IC50 [1, 3]: 100 to 1000 nM | IC50 [2, 4]: > 1000 nM

CN(C)c1ccc(CNC(=O)C2CN(CC(=O)O)CCN2S(=O)(=O)c2ccc(I)cc2)cc1 (stereo not drawn) [Example 96, [3-(4-dimethylamino-benzylcarbamoyl)-4-(4-iodo-benzenesulfonyl)-piperazin-1-yl]-acetic acid]
IC50 [1, 3]: > 1000 nM | IC50 [2, 4]: > 1000 nM

CCCc1ccc(CNC(=O)[C@H]2CN(c3nc(C)c(C(N)=O)s3)CCN2S(=O)(=O)c2ccc(OC(F)(F)F)cc2)cc1 [Example 406, (R)-4-(5-carbamoyl-4-methyl-thiazol-2-yl)-1-(4-trifluoromethoxy-benzenesulfonyl)-piperazine-2-carboxylic acid 4-propyl-benzylamide]
IC50 [1, 3]: < 100 nM | IC50 [2, 4]: < 100 nM

CC(=O)N1CCN(S(=O)(=O)c2ccc(C(C)C)cc2)C(C(=O)NCc2ccc(-c3cnn(C)c3)cc2)C1 (stereo not drawn) [Example 108, 4-acetyl-1-(4-isopropyl-benzenesulfonyl)-piperazine-2-carboxylic acid 4-(1-methyl-1H-pyrazol-4-yl)-benzylamide]
IC50 [1, 3]: > 1000 nM | IC50 [2, 4]: > 1000 nM
